Data on 2 compounds can be found in patent US20110124745A1, “Switchable Anionic Surfactants and Methods of Making and Using Same” (priority 2009, published 2011).

Common to all, as to assay type: physicochemical
Data set [1] is described as follows: pKa of the protonated (neutral) form.
Data set [2] in a line: Switching from (1N) to (1A) using exposure to air. Conditions: D2O with Na2CO3, uncapped, stirred at room temperature, 90 min. The procedure:
A solution of anionic surfactant (1A) was prepared by combining octyl 4-hydroxy-3-nitrobenzoate (1N) (0.023 g) and Na2CO3 (0.068 g) in 8.0 mL of D2O. The resultant solution was homogenized by sonication for 2 min. Aliquots (1.00 mL) of this solution were transferred by Hamilton syringe with a least count of 0.005 mL, into three different vials, which were labeled as vials A, B and C. Visual observations were made of vials A, B and C after 0, 30 and 90 min of stirring at room temperature under separate conditions as described below and are presented in FIG. 3A, 3B and 3C, respectively. […] The solution in vial A remained in the ON form (1A) throughout the experiment and it appeared as a yellow homogeneous solution that was free of any solids. A magnetic stir bar was introduced in vials B and C. The surfactant solutions in vials B and C were turned OFF by allowing a stream of CO2 provided by a needle to blow, CO2 at the surface of the solutions (the needle was not allowed to dip or touch the surface of the solution). Vial C was then capped and its cap was supplemented by […]™ to inhibit CO2 leakage. Thus at the beginning of this experiment, which is pictured in FIG. 3A, vial A held a solution in the ON form, and vials B and C held a solution in the OFF form. Vial B was then uncapped and stirred under passive exposure to air. Vial C was stirred under a passive CO2 headgas. […]

Data set [3] in a line: Surface tension studies (tensiometer measurements). The procedure: A stock solution of compound (1A) was prepared by combining 0.460 g (1.559 mmol) of octyl 4-hydroxy-3-nitrobenzoate (1N) and 1.36 g (12.83 mmol) of Na2CO3 in 160 mL of deionized H2O. The resultant solution was homogenized by sonication for 2 min using a sonicating machine (model […], available from Fisher Scientific, Ottawa, Canada). 10 mL of the homogeneous solution was transferred into each of thirteen vials (13×10 mL, vial numbers: 1, 2, 2*, 3, 4, 5, 6, 7, 8, 9, 10, 11 and 12). The levels of solution in all the vials were marked using a marker pen on the outside of the vials. A stir bar was introduced in vials 2* through 12.
The solutions in each vial were turned OFF and back ON according to Table 1. […] In vials 2 and 2*, the surfactant was turned OFF. In vial 2*, following the OFF-turning, the uncapped vial contents were stirred at room temperature for 48 h.
Vials (other than vial 2*) were left at room temperature for 18 h prior to surface tension measurements. Where necessary, water was added to the vials until the total volume matched the original marked levels.
The contents of vials with even numbers (OFF) were filtered by passing them through a Kimwipe™ plug in a pipette to obtain a clear solution.
Surface tension for all solutions was measured in triplicate. The three values of surface tension for each solution remained within ±1 dynes/cm indicating good reproducibility. The tensiometer (Surface Tensiomat 21, Model 14814, available from Fischer Scientific, Ottawa, Canada) was calibrated using deionized water. The initial value of 72 dynes/cm obtained for water was acceptable within experimental error.

The term pKa denotes the negative logarithm of the acid dissociation constant. In data set [1], `CCCCCCCCOC(=O)c1ccc(O)c([N+](=O)[O-])c1` [compound (1N), octyl 4-hydroxy-3-nitrobenzoate] displayed a pKa of approximately 5.5. The “conversion of OFF form to ON form by passive exposure to air” value in data set [2] is on record as “passive exposure to air is sufficient”. Further, the “average value of the surface tension over the OFF vials” value in data set [3] (OFF form, vials 2, 4, 6, 8, 10, 12) stood at 61 dynes/cm.
Regarding `CCCCCCCCOC(=O)c1ccc(O)c([N+](=O)[O-])c1` [compound (1A), 2-nitro-4-(octyloxycarbonyl)phenolate], the Average surface tension in data set [3] (1.559 mmol (1N) + 12.83 mmol Na2CO3 in 160 mL water, vial 1, control, never switched (ON)) stood at 35 dynes/cm; in data set [3] (vial 2*: turned OFF, then stirred uncapped at room temperature for 48 h), 35 dynes/cm. Also, in data set [3] (ON form, vials 1, 3, 5, 7, 9, 11), the “average value of the surface tension over the ON vials” value came out at 34 dynes/cm.
